Laboratory results from patent US5434138A, “Gonadoliberin antagonists” (Hoechst Aktiengesellschaft, priority 1990, dated 1995).

How the values were obtained:
[1] = test system: immature female rats (LHRH-induced ovulation); assay: Rat antiovulation assay; type: in vivo; settings: PMSG-pretreated immature female rats, phenobarbital; 800 ng LHRH s.c. 2 hours after antagonist
Experimental: (§1) The peptides according to the invention have been tested for an atrophic effect on androgen-dependent organs and for an LH- and testosterone-lowering effect in serum and blood of male rats by continuous infusion (MINIPUMPS). The ovulation-inhibiting effect has been tested on female rats. The histamine release was checked using rat peritoneal mast cells.
The ovulation-inhibiting effect was tested in immature female rats which had been pretreated with PMSG (pregnant mare serum gonadotropin) in order to induce follicle maturation, Spontaneous ovulation was prevented by barbiturate (phenobarbital). A test dose of 800 ng of LHRH was injected subcutaneously 2 hours after the antagonists. The test substances were injected subcutaneously dissolved in 5% strength mannitol solution. The next day the Fallopian tubes were dissected out and stained with Patent Blue, and the tubular oocytes were counted under a microscope. The dose for an ovulation-inhibiting effect (ED 100) was determined for all the antagonists.

[2] = test system: rat peritoneal mast cells; assay: Histamine release from peritoneal mast cells; type: cell-based, Wistar rats; settings: 37° C., 30 minutes
Experimental: as §1
Wistar rats were sacrificed by decapitation. 50 ml of a 0.9% strength NaCl solution were injected into the abdominal cavity and, after gentle massage, the abdominal wall was opened. The fluid, which contains the peritoneal cells, was aspirated using a Pasteur pipette and then centrifuged. The pelleted cells were resuspended and, after testing viability, diluted to 10^6 mast cells/ml.
150 μl of the dissolved gonadoliberin antagonist were added to a suspension of 10^5 mast cells in 150 μl of 0.9 % strength NaCl solution. After incubation at 37° C. for 30 minutes, the test tubes were centrifuged and the supernatant was removed. The LHRH antagonist Ac-D-Nal-D-p-Cl-D-Phe-D-Trp-Ser-Tyr-D-Ser(Rha)-Leu-Arg-Pro-Azagly-NH2, known to be a compound which induces histamine release by mast cells, was used as comparison substance. To determine the total histamine release (100%), the mast cell suspensions were rapidly boiled over a Bunsen burner.
A modified form of the methods described by Skofitsch et al. (J. Chromatography, 226, 53-59, 1981) and Siraganian and Hook (in Manual of Clinical Laboratory Immunology; eds: Rose et al. American Society of Microbiology, Washington D.C., pages 675, 1986) was used. Briefly summarized, 100 μl of a 1N NaOH and 100 μl of phthalaldehyde were added to 250 μl of supernatant and shaken vigorously. After a reaction time of 2 minutes, the fluorophore was converted into a more strongly fluorescent and stable product by acidification with 50 μl of 3N HCl. 10 μl of the supernatant were injected into the Chromspher C8 column (Chrompak FRW) of the HPLC system. This system comprises an SP 8100 chromatograph (Spectra Physics) and an SP 4270 integrator (Spectra Physics) and an LS-1 fluorescence detector (Perkin Elmer). The fluorescence was recorded at the wavelengths of 360 nm excitation and 450 nm emission.
Histamine release from peritoneal mast cells (μl/ml)

serum testosterone = assay: Testosterone-lowering effect on infusion by minipumps; type: in vivo, rat; settings: male rats, subcutaneous infusion by minipumps for 7 days
Experimental: as §1
The testosterone-lowering effect was tested on male rats during subcutaneous infusion for 7 days. The biological effect on androgen-dependent organs and serum testosterone was recorded. The test compounds were administered by subcutaneous infusion using minipumps at a rate of […] for 7 days. The test compounds were dissolved in sterile 5 % strength mannitol solution. The minipumps were implanted subcutaneously in the region of the back under anesthesia and aseptic conditions.
Serum testosterone was extracted with diethyl ether and determined by a specific RIA.
Testosterone-lowering effect on infusion by minipumps

histamine secretion = settings: A. Phillips et al., Life Sci. 41 (1987); cited from earlier work

| Substance | Ovulation-inhibiting dose (ED 100) [1] [ng per rat s.c.] | Histamine release, percentage relative to total histamine release on boiling ([2]; 0.01 (μl/ml) antagonist) [%] | Histamine release, percentage relative to total histamine release on boiling ([2]; 0.1 (μl/ml) antagonist) [%] | Histamine release, percentage relative to total histamine release on boiling ([2]; 1 (μl/ml) antagonist) [%] | Histamine release, percentage relative to total histamine release on boiling ([2]; 10 (μl/ml) antagonist) [%] | Histamine release, percentage relative to total histamine release on boiling ([2]; 100 (μl/ml) antagonist) [%] | Testosterone-lowering effect on infusion by minipumps: Dose per day (serum testosterone) [μg/24 h/rat] | histamine secretion (histamine secretion) |
| --- | --- | --- | --- | --- | --- | --- | --- | --- |
| Ac-D-NaI-D-p-Cl-Phe-D-Trp-Ser-Tyr-D-Ser(Rha)-Leu-Ser(Rha)-pro-Azagly-NH2 [Example 1] | 120 | 0.33 | 2.82 | -2.16 | -5.37 | -8.61 | 120 | – |
| Ac-D-Nal-D-p-Cl-D-Phe-D-Trp-Ser-Tyr-D-Ser(Rha)-Leu-Arg-Pro-Azagly-NH2 [Comparison substance, reference compound] | – | 2.6 | 2.1 | 15.3 | 92.4 | 107.6 | – | – |
| Ac-D-Nal-D-p-Cl-Phe-D-Pal-Ser-Tyr-D-Ser(Rha)-Leu-Ser (Rha)-Pro-Azagly-NH2 [Example 2] | 256 | 2.5 | 4.6 | 3.7 | 0.9 | 0.0 | 120 | – |
| Ac-D-Nal-D-p-Cl-Phe-D-Pal-Ser-Tyr-D-Ser(Rha)-Leu-Ser(Fuc)-Pro-Azagly-NH2 [Example 4] | 64 | – | – | – | – | – | 60 | – |
| Ac-D-Nal-D-p-Cl-Phe-D-Pal-Ser-Tyr-D-Ser(Rha)-Leu-Ser(Rha)-Pro-D-Ala-NH2 [Example 5] | 64 | 1.9 | 2.4 | 0.9 | 0.3 | 3.8 | 60 | – |
| Ac-D-Nal-D-p-Cl-Phe-D-Trp-Ser-Tyr-D-Ser(Rha)-Leu-Ser(Xyl)-Pro-Azagly-NH2 [Example 3] | 512 | – | – | – | – | – | 120 | – |
| Nal-Glu | – | – | – | – | – | – | – | greatly reduced |
